Test results as given in patent US5358951A, “Angiotensin II receptor blocking 2, 3, 6 substituted quinazolinones” (American Cyanamid Company, priority 1993, dated 1994).

Test system: vasopressor response of angiotensin II
Test: AII Challenge: antagonism of angiotensin II vasopressor response;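 on Response Average Change: post-dose Angiotensin II-evoked rise in systolic blood pressure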
Assay type: in vivo
Conditions: for inhibition in vivo at 3 mg/kg / inhibition in vivo at 5 mg/kg: Rattus norvegicus; for inhibition in vivo at 3 mg/kg: iv; for inhibition in vivo at 5 mg/kg: po
Excerpt: Conscious Male Okamoto-Aoki SHR, 16-20 weeks old, weighing approximately 330 g are purchased from Charles River Labs (Wilmington, Mass.). Conscious rats are restrained in a supine position with elastic tape. The area at the base of the tail is locally anesthetized by subcutaneous infiltration with 2% procaine. The ventral caudal artery and vein are isolated, and a cannula made of polyethylene (PE) 10-20 tubing (fused together by heat) is passed into the lower abdominal aorta and vena cava, respectively. The cannula is secured, heparinized (1,000 I.U./ml), sealed and the wound is closed. The animals are placed in plastic restraining cages in an upright position. The cannula is attached to a Statham P23 Db pressure transducer, and pulsatile blood pressure is recorded to 10-15 minutes with a Gould Brush recorder. (Chan et al., (Drug Development Res., 18:75-94, 1989). Angiotensin II (human sequence, Sigma Chem. Co., St. Louis, Mo.) of 0.05 and 0.1 ug/kg i.v. is injected into all rats (predosing response). Then a test compound, vehicle or a known angiotensin II antagonist is administered i.v., i.p. or orally to each set of rats. The two doses of angiotensin II are given to each rat again at 30, 60, 90, 120, 180, 240 and 300 minutes post dosing the compound or vehicle. The vasopressor response of angiotensin II is measured for the increase in systolic blood pressure in mmHg. The percentage of antagonism or blockade of the vasopressor response of angiotensin II by a compound is calculated using the vasopressor response (increase in systolic blood pressure) of angiotensin II of each rat predosing the compound as 100%.

[1] = 3 mg/kg I.V., AII 0.05 mcg/kg IV, 30 min post dose
[2] = 3 mg/kg I.V., AII 0.05 mcg/kg IV, 60 min post dose
[3] = 3 mg/kg I.V., AII 0.05 mcg/kg IV, 90 min post dose
[4] = 3 mg/kg I.V., AII 0.05 mcg/kg IV, 120 min post dose
[5] = 3 mg/kg I.V., AII 0.05 mcg/kg IV, 180 min post dose
[6] = 3 mg/kg I.V., AII 0.1 mcg/kg IV, 30 min post dose
[7] = 3 mg/kg I.V., AII 0.1 mcg/kg IV, 60 min post dose
[8] = 3 mg/kg I.V., AII 0.1 mcg/kg IV, 90 min post dose
[9] = 3 mg/kg I.V., AII 0.1 mcg/kg IV, 120 min post dose
[10] = 3 mg/kg I.V., AII 0.1 mcg/kg IV, 180 min post dose
[11] = 0.5 h, 3 mg/kg I.V., AII 0.05 mcg/kg IV, 30 min post dose
[12] = 0.5 h, 3 mg/kg I.V., AII 0.1 mcg/kg IV, 30 min post dose
[13] = 1 h, 3 mg/kg I.V., AII 0.05 mcg/kg IV, 60 min post dose
[14] = 1 h, 3 mg/kg I.V., AII 0.1 mcg/kg IV, 60 min post dose
[15] = 2 h, 3 mg/kg I.V., AII 0.05 mcg/kg IV, 120 min post dose
[16] = 2 h, 3 mg/kg I.V., AII 0.1 mcg/kg IV, 120 min post dose
[17] = 3 h, 3 mg/kg I.V., AII 0.05 mcg/kg IV, 180 min post dose
[18] = 3 h, 3 mg/kg I.V., AII 0.1 mcg/kg IV, 180 min post dose
[19] = […], 3 mg/kg I.V., AII 0.05 mcg/kg IV, 90 min post dose
[20] = […], 3 mg/kg I.V., AII 0.1 mcg/kg IV, 90 min post dose

CCCCc1nc2ccc([C@H]3C[C@]4(C)CCCCN4O3)cc2c(=O)n1Cc1ccc(-c2ccccc2-c2nnn[nH]2)cc1 (relative stereo) [Example 65]
Response Average Change [1]: 2.5 mmHg
Response Average Change [2]: 15.5 mmHg
Response Average Change [3]: 11 mmHg
Response Average Change [4]: 8 mmHg
Response Average Change [5]: 25 mmHg
Response Average Change [6]: 2.5 mmHg
Response Average Change [7]: 11 mmHg
Response Average Change [8]: 16.5 mmHg
Response Average Change [9]: 12.5 mmHg
Response Average Change [10]: 17.5 mmHg
inhibition in vivo at 3 mg/kg [11]: 95%
inhibition in vivo at 3 mg/kg [12]: 95%
inhibition in vivo at 3 mg/kg [13]: 66%
inhibition in vivo at 3 mg/kg [14]: 77%
inhibition in vivo at 3 mg/kg [15]: 82%
inhibition in vivo at 3 mg/kg [16]: 74%
inhibition in vivo at 3 mg/kg [17]: 45%
inhibition in vivo at 3 mg/kg [18]: 64%
inhibition in vivo at 3 mg/kg [19]: 76%
inhibition in vivo at 3 mg/kg [20]: 66%

CCCCc1nc2ccc([C@]3(C)C[C@@H]4CCC(C)(C)N4O3)cc2c(=O)n1Cc1ccc(-c2ccccc2-c2nnn[nH]2)cc1 (relative stereo) [Example 69, Trans-2-Butyl-6-(hexahydro-2,6,6-trimethylpyrrolo[1,2-b]isoxazol-2-yl)-3-[[2'-(1H-tetrazol-5-yl)[1,1'-biphenyl]-4-yl]methyl]-4(3H)-quinazolinone]
Response Average Change [1]: 0 mmHg
Response Average Change [2]: 2.5 mmHg
Response Average Change [3]: 2.5 mmHg
Response Average Change [4]: 5 mmHg
Response Average Change [5]: 2.5 mmHg
Response Average Change (3 mg/kg I.V., AII 0.05 mcg/kg IV, 240 min post dose): 5 mmHg
Response Average Change (3 mg/kg I.V., AII 0.05 mcg/kg IV, 300 min post dose): 10 mmHg
Response Average Change [6]: 0 mmHg
Response Average Change [7]: 0 mmHg
Response Average Change [8]: 25 mmHg
Response Average Change [9]: 2.5 mmHg
Response Average Change [10]: 0 mmHg
Response Average Change (3 mg/kg I.V., AII 0.1 mcg/kg IV, 240 min post dose): 7.5 mmHg
Response Average Change (3 mg/kg I.V., AII 0.1 mcg/kg IV, 300 min post dose): 12.5 mmHg
inhibition in vivo at 3 mg/kg [11]: 100%
inhibition in vivo at 3 mg/kg [12]: 100%
inhibition in vivo at 3 mg/kg [13]: 92%
inhibition in vivo at 3 mg/kg [14]: 100%
inhibition in vivo at 3 mg/kg [15]: 83%
inhibition in vivo at 3 mg/kg [16]: 94%
inhibition in vivo at 3 mg/kg [17]: 92%
inhibition in vivo at 3 mg/kg [18]: 100%
inhibition in vivo at 3 mg/kg (4 h, 3 mg/kg I.V., AII 0.05 mcg/kg IV, 240 min post dose): 83%
inhibition in vivo at 3 mg/kg (4 h, 3 mg/kg I.V., AII 0.1 mcg/kg IV, 240 min post dose): 81%
inhibition in vivo at 3 mg/kg (5 h, 3 mg/kg I.V., AII 0.05 mcg/kg IV, 300 min post dose): 67%
inhibition in vivo at 3 mg/kg (5 h, 3 mg/kg I.V., AII 0.1 mcg/kg IV, 300 min post dose): 69%
inhibition in vivo at 3 mg/kg [19]: 92%
inhibition in vivo at 3 mg/kg [20]: 94%

CCCCc1nc2ccc([C@@H]3C[C@H]4CCCN4O3)cc2c(=O)n1Cc1ccc(-c2ccccc2-c2nnn[nH]2)cc1 (racemic) [Example 57, Cis-(+/-)-2-Butyl-6-(hexahydropyrrolo[1,2-b]isoxazol-2-yl)-3-[[2'-(1H-tetrazol-5-yl)[1,1'-biphenyl]-4-yl]methyl]-4(3H)-quinazolinone]
Response Average Change [1]: 12.5 mmHg
Response Average Change [2]: 22.5 mmHg
Response Average Change [3]: 20 mmHg
Response Average Change [4]: 17.5 mmHg
Response Average Change [5]: 36 mmHg
Response Average Change [6]: 7.5 mmHg
Response Average Change [7]: 15 mmHg
Response Average Change [8]: 20 mmHg
Response Average Change [9]: 37.5 mmHg
Response Average Change [10]: 44 mmHg
Response Average Change (5 mg/kg P.O., AII 0.05 mcg/kg IV, 30 min post dose): 31.5 mmHg
Response Average Change (5 mg/kg P.O., AII 0.05 mcg/kg IV, 60 min post dose): 25 mmHg
Response Average Change (5 mg/kg P.O., AII 0.05 mcg/kg IV, 90 min post dose): 32.5 mmHg
Response Average Change (5 mg/kg P.O., AII 0.05 mcg/kg IV, 120 min post dose): 20 mmHg
Response Average Change (5 mg/kg P.O., AII 0.05 mcg/kg IV, 180 min post dose): 20 mmHg
Response Average Change (5 mg/kg P.O., AII 0.05 mcg/kg IV, 240 min post dose): 20 mmHg
Response Average Change (5 mg/kg P.O., AII 0.05 mcg/kg IV, 300 min post dose): 22.5 mmHg
Response Average Change (5 mg/kg P.O., AII 0.1 mcg/kg IV, 30 min post dose): 22.5 mmHg
Response Average Change (5 mg/kg P.O., AII 0.1 mcg/kg IV, 60 min post dose): 29 mmHg
Response Average Change (5 mg/kg P.O., AII 0.1 mcg/kg IV, 90 min post dose): 29.5 mmHg
Response Average Change (5 mg/kg P.O., AII 0.1 mcg/kg IV, 120 min post dose): 25 mmHg
Response Average Change (5 mg/kg P.O., AII 0.1 mcg/kg IV, 180 min post dose): 41.5 mmHg
Response Average Change (5 mg/kg P.O., AII 0.1 mcg/kg IV, 240 min post dose): 40 mmHg
Response Average Change (5 mg/kg P.O., AII 0.1 mcg/kg IV, 300 min post dose): 42.5 mmHg
inhibition in vivo at 3 mg/kg [11]: 67%
inhibition in vivo at 3 mg/kg [12]: 81%
inhibition in vivo at 3 mg/kg [13]: 40%
inhibition in vivo at 3 mg/kg [14]: 63%
inhibition in vivo at 3 mg/kg [15]: 57%
inhibition in vivo at 3 mg/kg [16]: 17%
inhibition in vivo at 3 mg/kg [17]: 11%
inhibition in vivo at 3 mg/kg [18]: 2%
inhibition in vivo at 3 mg/kg [19]: 47%
inhibition in vivo at 3 mg/kg [20]: 50%
inhibition in vivo at 5 mg/kg (0.5 h, 5 mg/kg P.O., AII 0.05 mcg/kg IV, 30 min post dose): 26%
inhibition in vivo at 5 mg/kg (0.5 h, 5 mg/kg P.O., AII 0.1 mcg/kg IV, 30 min post dose): 47%
inhibition in vivo at 5 mg/kg (1 h, 5 mg/kg P.O., AII 0.05 mcg/kg IV, 60 min post dose): 41%
inhibition in vivo at 5 mg/kg (1 h, 5 mg/kg P.O., AII 0.1 mcg/kg IV, 60 min post dose): 32%
inhibition in vivo at 5 mg/kg (2 h, 5 mg/kg P.O., AII 0.05 mcg/kg IV, 120 min post dose): 53%
inhibition in vivo at 5 mg/kg (2 h, 5 mg/kg P.O., AII 0.1 mcg/kg IV, 120 min post dose): 41%
inhibition in vivo at 5 mg/kg (3 h, 5 mg/kg P.O., AII 0.05 mcg/kg IV, 180 min post dose): 53%
inhibition in vivo at 5 mg/kg (3 h, 5 mg/kg P.O., AII 0.1 mcg/kg IV, 180 min post dose): 2%
inhibition in vivo at 5 mg/kg (4 h, 5 mg/kg P.O., AII 0.05 mcg/kg IV, 240 min post dose): 53%
inhibition in vivo at 5 mg/kg (4 h, 5 mg/kg P.O., AII 0.1 mcg/kg IV, 240 min post dose): 6%
inhibition in vivo at 5 mg/kg (5 h, 5 mg/kg P.O., AII 0.05 mcg/kg IV, 300 min post dose): 47%
inhibition in vivo at 5 mg/kg (5 h, 5 mg/kg P.O., AII 0.1 mcg/kg IV, 300 min post dose): 0%
inhibition in vivo at 5 mg/kg ([…], 5 mg/kg P.O., AII 0.05 mcg/kg IV, 90 min post dose): 24%
inhibition in vivo at 5 mg/kg ([…], 5 mg/kg P.O., AII 0.1 mcg/kg IV, 90 min post dose): 31%
